Values of other authors as cited in US20120269803A1, “SUBSTITUTED BENZOSULPHONAMIDES” (BAYER INTELLECTUAL PROPERTY GMBH, priority 2009, published 2012).

How the values were obtained:
[1] = phase I/II clinical trials in humans, literature [19]
[2] = test system: MEK1/2; conditions: MEK1/2 inhibitor, literature [17]
[3] = test system: colon cancer; conditions: oral treatment, mouse models, literature [18]

IC50 [2]: low nanomolar range
SMILES: O=C(NOCC1CC1)c1ccc(F)c(F)c1Nc1ccc(I)cc1Cl [PD184352]
clinical efficacy [1]: insufficient efficacy
colon cancer growth in vivo [3]: inhibit colon cancer growth in vivo
